The values below come from ChEMBL document CHEMBL1130221, “Constrained corticotropin-releasing factor antagonists with i-(i + 3) Glu-Lys bridges” (1997).

The species named for assay [1] is Rattus norvegicus. Nature of the assay: The percent intrinsic activity, determined by level of antagonist induced secretion. It is filed as functional.
For assay [2], the species on record is Rattus norvegicus. The assay is described as follows: In vitro relative potency versus [DPhe12,Nle21,38]-hCRF(12-41), using rat pituitary culture assay. It is filed as functional.

Structures are written as SMILES.

In the assay filed under Rattus norvegicus [1], `CCCC[C@H](NC(=O)[C@H](CCC(=O)O)NC(=O)[C@H](CC(C)C)NC(=O)[C@@H](NC(=O)[C@H](CCC(=O)O)NC(=O)[C@H](CCCN=C(N)N)NC(=O)[C@H](CC(C)C)NC(=O)[C@H](CC(C)C)NC(=O)[C@@H]1CCCCNC(=O)CC[C@H](NC(=O)[C@@H](N)CC(=O)O)C(=O)N[C@@H]([C@@H](C)O)C(=O)N[C@H](Cc2ccccc2)C(=O)N1)C(C)C)C(=O)N[C@@H](C)C(=O)N[C@@H](CCCN=C(N)N)C(=O)N[C@@H](C)C(=O)N[C@@H](CCC(=O)O)C(=O)N[C@@H](CCC(N)=O)C(=O)N[C@@H](CC(C)C)C(=O)N[C@@H](C)C(=O)N[C@@H](CCC(N)=O)C(=O)N[C@@H](CCC(N)=O)C(=O)N[C@@H](C)C(=O)N[C@@H](Cc1c[nH]cn1)C(=O)N[C@@H](CO)C(=O)N[C@@H](CC(N)=O)C(=O)N[C@@H](CCCN=C(N)N)C(=O)N[C@@H](CCCCN)C(=O)N[C@@H](CC(C)C)C(=O)N[C@@H](CCCC)C(=O)N[C@@H](CCC(=O)O)C(=O)N[C@H](C(=O)N[C@H](C(N)=O)[C@@H](C)CC)[C@@H](C)CC` had an IA of 27%. For the same molecule, the Relative potency in the assay filed under Rattus norvegicus [2] is on record as 0.27.
In the same order, the values of `CCCC[C@H](NC(=O)[C@H](CCC(=O)O)NC(=O)[C@H](CC(C)C)NC(=O)[C@@H](NC(=O)[C@H](CCC(=O)O)NC(=O)[C@H](CCCN=C(N)N)NC(=O)[C@H](CC(C)C)NC(=O)[C@@H]1CCCCNC(=O)CC[C@H](NC(=O)[C@H](CC(C)C)NC(=O)[C@@H](N)CC(=O)O)C(=O)N[C@H](Cc2ccccc2)C(=O)N[C@@H](Cc2c[nH]cn2)C(=O)N1)C(C)C)C(=O)N[C@@H](C)C(=O)N[C@@H](CCCN=C(N)N)C(=O)N[C@@H](C)C(=O)N[C@@H](CCC(=O)O)C(=O)N[C@@H](CCC(N)=O)C(=O)N[C@@H](CC(C)C)C(=O)N[C@@H](C)C(=O)N[C@@H](CCC(N)=O)C(=O)N[C@@H](CCC(N)=O)C(=O)N[C@@H](C)C(=O)N[C@@H](Cc1c[nH]cn1)C(=O)N[C@@H](CO)C(=O)N[C@@H](CC(N)=O)C(=O)N[C@@H](CCCN=C(N)N)C(=O)N[C@@H](CCCCN)C(=O)N[C@@H](CC(C)C)C(=O)N[C@@H](CCCC)C(=O)N[C@@H](CCC(=O)O)C(=O)N[C@H](C(=O)N[C@H](C(N)=O)[C@@H](C)CC)[C@@H](C)CC` are 29% and 0.005.
